tested on: PC3 cells; assay: NAMPT Cell Proliferation Assay; assay type: cell-based; conditions: Homo sapiens, PC-3, 120 h, 5 days incubation, cell viability by Cell Titer Glo
Method in brief: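 Five-day CellTiter-Glo viability readout in PC3 cells grown in RPMI/10% heat-inactivated FBS. Compounds added after overnight attachment as a 10-fold dilution series, […]. Percent inhibition fitted to sigmoidal dose-response to derive IC50.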

Row | IC50 [nM] | SMILES
1 | 1.61 | CC(C)(C)Cc1nnc(-c2ccc(NC(=O)C3CN(c4cccnn4)C3)cc2)o1 [Example 803, N-{4-[5-(2,2-dimethylpropyl)-1,3,4-oxadiazol-2-yl]phenyl}-1-(pyridazin-3-yl)azetidine-3-carboxamide]
2 | 7.92 | CC(C)(C)Cn1cnc(-c2ccc(NC(=O)C3CN(c4cccnn4)C3)cc2)c1 [Example 804, N-{4-[1-(2,2-dimethylpropyl)-1H-imidazol-4-yl]phenyl}-1-(pyridazin-3-yl)azetidine-3-carboxamide]
3 | 65 | Cn1nc(C2CC2)cc1-c1ccc(NC(=O)C2CN(c3cccnn3)C2)cc1 [Example 805, N-[4-(3-cyclopropyl-1-methyl-1H-pyrazol-5-yl)phenyl]-1-(pyridazin-3-yl)azetidine-3-carboxamide]
4 | 3.13 | CC(C)(C)Cc1nc(-c2ccc(NC(=O)C3CN(c4cccnn4)C3)cc2)no1 [Example 806, N-{4-[5-(2,2-dimethylpropyl)-1,2,4-oxadiazol-3-yl]phenyl}-1-(pyridazin-3-yl)azetidine-3-carboxamide]
5 | 4.15 | COCCn1nc(C2CC2)cc1-c1ccc(NC(=O)C2CN(c3cccnn3)C2)cc1 [Example 807, N-{4-[3-cyclopropyl-1-(2-methoxyethyl)-1H-pyrazol-5-yl]phenyl}-1-(pyridazin-3-yl)azetidine-3-carboxamide]
6 | 41.1 | CC(C)(C)OC(=O)N1CCC(c2ccc(C(=O)NC3CN(c4cccnn4)C3)s2)CC1 [Example 808, tert-butyl 4-(5-{[1-(pyridazin-3-yl)azetidin-3-yl]carbamoyl}thiophen-2-yl)piperidine-1-carboxylate]
7 | 2.4 | CC(C)(C)OC(=O)N1CCC(F)(c2ccc(NC(=O)C3CN(c4cccnn4)C3)cc2)CC1 [Example 809, tert-butyl 4-fluoro-4-[4-({[1-(pyridazin-3-yl)azetidin-3-yl]carbonyl}amino)phenyl]piperidine-1-carboxylate]
8 | 61.1 | O=C(NC1CN(c2cccnn2)C1)c1ccc(C2CCN(C(=O)c3ccccc3)CC2)s1 [Example 810, 5-(1-benzoylpiperidin-4-yl)-N-[1-(pyridazin-3-yl)azetidin-3-yl]thiophene-2-carboxamide]
9 | 11 | O=C(NC1CN(c2cccnn2)C1)c1ccc(C2CCN(C(=O)c3ccccc3F)CC2)s1 [Example 811, 5-[1-(2-fluorobenzoyl)piperidin-4-yl]-N-[1-(pyridazin-3-yl)azetidin-3-yl]thiophene-2-carboxamide]
10 | 10.2 | Cc1ccccc1C(=O)N1CCC(c2ccc(C(=O)NC3CN(c4cccnn4)C3)s2)CC1 [Example 812, 5-[1-(2-methylbenzoyl)piperidin-4-yl]-N-[1-(pyridazin-3-yl)azetidin-3-yl]thiophene-2-carboxamide]
11 | 78.6 | O=C(NC1CN(c2cccnn2)C1)c1ccc(C2CCN(C(=O)c3ccc(F)cc3F)CC2)s1 [Example 813, 5-[1-(2,4-difluorobenzoyl)piperidin-4-yl]-N-[1-(pyridazin-3-yl)azetidin-3-yl]thiophene-2-carboxamide]
12 | 81.9 | O=C(NC1CN(c2cccnn2)C1)c1ccc(C2CCN(C(=O)c3cccc(F)c3)CC2)s1 [Example 814, 5-[1-(3-fluorobenzoyl)piperidin-4-yl]-N-[1-(pyridazin-3-yl)azetidin-3-yl]thiophene-2-carboxamide]
13 | 185 | O=C(NC1CN(c2cccnn2)C1)c1ccc(C2CCN(C(=O)c3ccc(F)cc3)CC2)s1 [Example 815, 5-[1-(4-fluorobenzoyl)piperidin-4-yl]-N-[1-(pyridazin-3-yl)azetidin-3-yl]thiophene-2-carboxamide]
14 | 188 | O=C(NC1CN(c2cccnn2)C1)c1ccc(C2CCN(C(=O)c3cc(F)cc(F)c3)CC2)s1 [Example 816, 5-[1-(3,5-difluorobenzoyl)piperidin-4-yl]-N-[1-(pyridazin-3-yl)azetidin-3-yl]thiophene-2-carboxamide]
15 | 64.1 | O=C(Nc1ccc(-c2cc(C3CC3)nn2CCO)cc1)C1CN(c2cccnn2)C1 [Example 817, N-{4-[3-cyclopropyl-1-(2-hydroxyethyl)-1H-pyrazol-5-yl]phenyl}-1-(pyridazin-3-yl)azetidine-3-carboxamide]
16 | 29.4 | O=C(Nc1ccc(C2CCN(C(=O)c3ccccc3)CC2)cc1)C1CN(c2ccc(F)nn2)C1 [Example 818, N-[4-(1-benzoylpiperidin-4-yl)phenyl]-1-(6-fluoropyridazin-3-yl)azetidine-3-carboxamide]
17 | 8.56 | O=C(Nc1ccc(C2CCN(C(=O)c3ccccc3F)CC2)cc1)C1CN(c2ccc(F)nn2)C1 [Example 819, N-{4-[1-(2-fluorobenzoyl)piperidin-4-yl]phenyl}-1-(6-fluoropyridazin-3-yl)azetidine-3-carboxamide]
18 | 75.4 | CC(C)(C)C(=O)N1CCC(c2ccc(NC(=O)C3CN(c4ccc(F)nn4)C3)cc2)CC1 [Example 820, N-{4-[1-(2,2-dimethylpropanoyl)piperidin-4-yl]phenyl}-1-(6-fluoropyridazin-3-yl)azetidine-3-carboxamide]

Row | IC50 [nM] | SMILES
19 | 165 | CC(C)C(=O)N1CCC(c2ccc(NC(=O)C3CN(c4ccc(F)nn4)C3)cc2)CC1 [Example 821, 1-(6-fluoropyridazin-3-yl)-N-{4-[1-(2-methylpropanoyl)piperidin-4-yl]phenyl}azetidine-3-carboxamide]
20 | 60.5 | CCC(CC)C(=O)N1CCC(c2ccc(NC(=O)C3CN(c4ccc(F)nn4)C3)cc2)CC1 [Example 822, N-{4-[1-(2-ethylbutanoyl)piperidin-4-yl]phenyl}-1-(6-fluoropyridazin-3-yl)azetidine-3-carboxamide]
21 | 247 | O=C(Nc1ccc(C2CCN(C(=O)c3ccc(F)cc3)CC2)cc1)C1CN(c2ccc(F)nn2)C1 [Example 823, N-{4-[1-(4-fluorobenzoyl)piperidin-4-yl]phenyl}-1-(6-fluoropyridazin-3-yl)azetidine-3-carboxamide]
22 | 70.6 | O=C(Nc1ccc(O[C@H]2CCN(C(=O)c3ccccc3)C2)cc1)[C@H]1CCN(c2cccnn2)C1 [Example 824, (3S)—N-(4-{[(3S)-1-benzoylpyrrolidin-3-yl]oxy}phenyl)-1-(pyridazin-3-yl)pyrrolidine-3-carboxamide]
23 | 62.3 | O=C(Nc1ccc(O[C@H]2CCN(C(=O)c3ccccc3F)C2)cc1)[C@H]1CCN(c2cccnn2)C1 [Example 825, (3S)—N-(4-{[(3S)-1-(2-fluorobenzoyl)pyrrolidin-3-yl]oxy}phenyl)-1-(pyridazin-3-yl)pyrrolidine-3-carboxamide]
24 | 98.3 | O=C(Nc1ccc(O[C@H]2CCN(C(=O)c3cc(F)cc(F)c3)C2)cc1)[C@H]1CCN(c2cccnn2)C1 [Example 826, (3S)—N-(4-{[(3S)-1-(3,5-difluorobenzoyl)pyrrolidin-3-yl]oxy}phenyl)-1-(pyridazin-3-yl)pyrrolidine-3-carboxamide]
25 | 73.7 | CC(C)(C)C(=O)N1CC[C@H](Oc2ccc(NC(=O)[C@H]3CCN(c4cccnn4)C3)cc2)C1 [Example 827, (3S)—N-(4-{[(3S)-1-(2,2-dimethylpropanoyl)pyrrolidin-3-yl]oxy}phenyl)-1-(pyridazin-3-yl)pyrrolidine-3-carboxamide]
26 | 0.826 | O=C(Nc1ccc(C2CCN(C(=O)c3ccccc3F)CC2)cc1F)C1CN(c2cccnn2)C1 [Example 828, N-{2-fluoro-4-[1-(2-fluorobenzoyl)piperidin-4-yl]phenyl}-1-(pyridazin-3-yl)azetidine-3-carboxamide]
27 | 2.95 | O=C(Nc1ccc(C2CCN(C(=O)c3ccccc3)CC2)cc1F)C1CN(c2cccnn2)C1 [Example 829, N-[4-(1-benzoylpiperidin-4-yl)-2-fluorophenyl]-1-(pyridazin-3-yl)azetidine-3-carboxamide]
28 | 7.96 | O=C(Nc1ccc(C2CCN(C(=O)c3cccc(F)c3)CC2)cc1F)C1CN(c2cccnn2)C1 [Example 830, N-{2-fluoro-4-[1-(3-fluorobenzoyl)piperidin-4-yl]phenyl}-1-(pyridazin-3-yl)azetidine-3-carboxamide]
29 | 7.25 | Cc1ccccc1C(=O)N1CCC(c2ccc(NC(=O)C3CN(c4cccnn4)C3)c(F)c2)CC1 [Example 831, N-{2-fluoro-4-[1-(2-methylbenzoyl)piperidin-4-yl]phenyl}-1-(pyridazin-3-yl)azetidine-3-carboxamide]
30 | 16.7 | O=C(Nc1ccc(C2CCN(C(=O)c3ccc(F)cc3)CC2)cc1F)C1CN(c2cccnn2)C1 [Example 832, N-{2-fluoro-4-[1-(4-fluorobenzoyl)piperidin-4-yl]phenyl}-1-(pyridazin-3-yl)azetidine-3-carboxamide]
31 | 6.67 | O=C(Nc1ccc(C2CCN(C(=O)c3ccc(F)cc3F)CC2)cc1F)C1CN(c2cccnn2)C1 [Example 833, N-{4-[1-(2,4-difluorobenzoyl)piperidin-4-yl]-2-fluorophenyl}-1-(pyridazin-3-yl)azetidine-3-carboxamide]
32 | 14.4 | O=C(Nc1ccc(C2CCN(C(=O)c3cc(F)cc(F)c3)CC2)cc1F)C1CN(c2cccnn2)C1 [Example 834, N-{4-[1-(3,5-difluorobenzoyl)piperidin-4-yl]-2-fluorophenyl}-1-(pyridazin-3-yl)azetidine-3-carboxamide]
33 | 2.35 | CC(C)(C)CC(=O)N1CCC(c2ccc(NC(=O)C3CN(c4cccnn4)C3)c(F)c2)CC1 [Example 835, N-{4-[1-(3,3-dimethylbutanoyl)piperidin-4-yl]-2-fluorophenyl}-1-(pyridazin-3-yl)azetidine-3-carboxamide]
34 | 658 | Cc1ccc(N2CC[C@H](C(=O)Nc3ccc(OC4CCN(C(=O)c5ccccc5F)CC4)cc3)C2)nn1 [Example 836, (3S)—N-(4-{[1-(2-fluorobenzoyl)piperidin-4-yl]oxy}phenyl)-1-(6-methylpyridazin-3-yl)pyrrolidine-3-carboxamide]
35 | 769 | Cc1ccc(N2CC[C@H](C(=O)Nc3ccc(OC4CCN(C(=O)c5ccccc5)CC4)cc3)C2)nn1 [Example 837, (3S)—N-{4-[(1-benzoylpiperidin-4-yl)oxy]phenyl}-1-(6-methylpyridazin-3-yl)pyrrolidine-3-carboxamide]
